Results taken from patent US20140017721A1 (The Research Foundation of State University of New York, priority 2012, published 2014).

Tested on: prostate cancer cells (parental PPT2, primary tumor-derived)
Test: Cytotoxic drug treatment of parental primary prostate cancer cells under stemness-promoting culture
Assay type: cell-based, human
Details: 0.1-3 μM concentrations; FIG. 1C
From the text: Initially, the isolated fast adherent cells represented a mixture of a majority of tumor-associated fibrocytes with a minor population of large cancer cells (FIG. 1A).

Row | Structure (SMILES) | enrichment of multinucleated gigantic cells (highly drug resistant type of CSCs)
1 | CC(=O)O[C@@]12CO[C@@H]1C[C@H](O)[C@@]1(C)C(=O)[C@H](OC(=O)C3CC3)C3=C(C)[C@@H](OC(=O)[C@H](O)[C@H](C=C(C)C)NC(=O)OC(C)(C)C)C[C@@](O)([C@@H](OC(=O)c4ccccc4)[C@H]21)C3(C)C [SBT-1214] | significant enrichment and visualization of the multinucleated gigantic cells
2 | CC(=O)O[C@H]1C(=O)[C@@]2(C)[C@H]([C@H](OC(=O)c3ccccc3)[C@]3(O)C[C@H](OC(=O)[C@H](O)[C@@H](NC(=O)c4ccccc4)c4ccccc4)C(C)=C1C3(C)C)[C@]1(OC(C)=O)CO[C@@H]1C[C@@H]2O [Taxol] | significant enrichment and visualization of the multinucleated gigantic cells
